From US12371428B2 (Exelixis, Inc., priority 2019, dated 2025) come the findings set out here.

Type in all cases: cell-based
In assay [1] the target is Met (phospho-Met, HGF-stimulated PC-3 prostate cancer cells) (Homo sapiens (Human), UniProt P08581). Nature of the assay: Met autophosphorylation ELISA in PC-3 cells (Example F). The conditions noted are these: cellular activity; Met autophosphorylation ELISA in PC-3 cells; read-out: c-Met IC50. Summed up:
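IC50 values derive from a 4-parameter logistic fit of phospho-Met (panTyr) sandwich ELISA signals in PC-3 lysates, scaled between DMSO and reference-inhibitor wells. Cells, starved 3 h in serum-free medium, had 1 h compound exposure (8 doses, 0.3% DMSO) before 10 min stimulation with 100 ng/mL HGF.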

Assay [2] concerns the target KDR (phospho-KDR, VEGF165-stimulated HUVEC cells) (Homo sapiens (Human), UniProt P35968). Kind of assay: KDR autophosphorylation ELISA in HUVEC cells (Example G). The conditions noted are these: cellular activity; KDR autophosphorylation ELISA in HUVEC cells. Summed up:
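Inhibition of VEGF165-driven KDR autophosphorylation is measured in primary human umbilical vein endothelial cells after 24 h serum deprivation. Compound preincubation lasts 1 h before a 5-minute challenge with 100 ng/mL ligand, and phosphorylated receptor is then measured by ELISA in the lysates.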

Assay [3] has as its target Mer (phospho-Mer, MERTK-transfected 293A cells) (Homo sapiens (Human), UniProt Q12866). Kind of assay: Mer autophosphorylation ELISA in transient transfected 293A cells (Example H). The conditions noted are these: cellular activity; Mer autophosphorylation ELISA in transient transfected 293A cells. Put shortly:
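IC50 from phospho-Mer ELISA of MERTK-transfected 293A cell lysates after 1 h treatment with serially diluted compound in serum-free medium.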

Counter-ions that a name gives are not always drawn. Bounds are passed on as bounds.

Mer (phospho-Mer, MERTK-transfected 293A cells), sequence (Q12866 21-999): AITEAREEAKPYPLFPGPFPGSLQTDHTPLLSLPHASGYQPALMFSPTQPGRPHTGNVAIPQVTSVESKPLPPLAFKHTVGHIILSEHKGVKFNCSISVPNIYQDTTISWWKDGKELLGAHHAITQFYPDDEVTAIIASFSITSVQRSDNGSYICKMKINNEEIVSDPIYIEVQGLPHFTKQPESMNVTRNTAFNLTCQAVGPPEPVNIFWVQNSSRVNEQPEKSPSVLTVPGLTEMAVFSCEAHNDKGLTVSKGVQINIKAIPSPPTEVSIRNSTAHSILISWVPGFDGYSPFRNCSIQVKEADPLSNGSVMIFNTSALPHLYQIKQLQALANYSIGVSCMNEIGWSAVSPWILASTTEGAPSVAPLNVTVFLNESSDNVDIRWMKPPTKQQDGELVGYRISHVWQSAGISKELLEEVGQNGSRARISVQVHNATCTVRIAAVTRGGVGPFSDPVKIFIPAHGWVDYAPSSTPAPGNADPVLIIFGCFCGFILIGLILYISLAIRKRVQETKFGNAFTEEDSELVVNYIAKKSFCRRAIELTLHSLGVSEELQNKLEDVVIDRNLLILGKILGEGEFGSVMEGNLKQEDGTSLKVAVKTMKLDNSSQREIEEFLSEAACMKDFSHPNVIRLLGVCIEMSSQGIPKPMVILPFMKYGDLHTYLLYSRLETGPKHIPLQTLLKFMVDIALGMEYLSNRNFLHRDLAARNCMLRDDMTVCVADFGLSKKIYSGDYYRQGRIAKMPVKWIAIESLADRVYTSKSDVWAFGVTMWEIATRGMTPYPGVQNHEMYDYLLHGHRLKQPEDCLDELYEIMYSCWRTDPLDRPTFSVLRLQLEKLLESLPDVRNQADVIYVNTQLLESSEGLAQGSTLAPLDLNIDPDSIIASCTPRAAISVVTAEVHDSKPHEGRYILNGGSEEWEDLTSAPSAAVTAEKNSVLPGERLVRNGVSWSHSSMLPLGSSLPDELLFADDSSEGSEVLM
KDR (phospho-KDR, VEGF165-stimulated HUVEC cells), sequence (P35968 20-1356): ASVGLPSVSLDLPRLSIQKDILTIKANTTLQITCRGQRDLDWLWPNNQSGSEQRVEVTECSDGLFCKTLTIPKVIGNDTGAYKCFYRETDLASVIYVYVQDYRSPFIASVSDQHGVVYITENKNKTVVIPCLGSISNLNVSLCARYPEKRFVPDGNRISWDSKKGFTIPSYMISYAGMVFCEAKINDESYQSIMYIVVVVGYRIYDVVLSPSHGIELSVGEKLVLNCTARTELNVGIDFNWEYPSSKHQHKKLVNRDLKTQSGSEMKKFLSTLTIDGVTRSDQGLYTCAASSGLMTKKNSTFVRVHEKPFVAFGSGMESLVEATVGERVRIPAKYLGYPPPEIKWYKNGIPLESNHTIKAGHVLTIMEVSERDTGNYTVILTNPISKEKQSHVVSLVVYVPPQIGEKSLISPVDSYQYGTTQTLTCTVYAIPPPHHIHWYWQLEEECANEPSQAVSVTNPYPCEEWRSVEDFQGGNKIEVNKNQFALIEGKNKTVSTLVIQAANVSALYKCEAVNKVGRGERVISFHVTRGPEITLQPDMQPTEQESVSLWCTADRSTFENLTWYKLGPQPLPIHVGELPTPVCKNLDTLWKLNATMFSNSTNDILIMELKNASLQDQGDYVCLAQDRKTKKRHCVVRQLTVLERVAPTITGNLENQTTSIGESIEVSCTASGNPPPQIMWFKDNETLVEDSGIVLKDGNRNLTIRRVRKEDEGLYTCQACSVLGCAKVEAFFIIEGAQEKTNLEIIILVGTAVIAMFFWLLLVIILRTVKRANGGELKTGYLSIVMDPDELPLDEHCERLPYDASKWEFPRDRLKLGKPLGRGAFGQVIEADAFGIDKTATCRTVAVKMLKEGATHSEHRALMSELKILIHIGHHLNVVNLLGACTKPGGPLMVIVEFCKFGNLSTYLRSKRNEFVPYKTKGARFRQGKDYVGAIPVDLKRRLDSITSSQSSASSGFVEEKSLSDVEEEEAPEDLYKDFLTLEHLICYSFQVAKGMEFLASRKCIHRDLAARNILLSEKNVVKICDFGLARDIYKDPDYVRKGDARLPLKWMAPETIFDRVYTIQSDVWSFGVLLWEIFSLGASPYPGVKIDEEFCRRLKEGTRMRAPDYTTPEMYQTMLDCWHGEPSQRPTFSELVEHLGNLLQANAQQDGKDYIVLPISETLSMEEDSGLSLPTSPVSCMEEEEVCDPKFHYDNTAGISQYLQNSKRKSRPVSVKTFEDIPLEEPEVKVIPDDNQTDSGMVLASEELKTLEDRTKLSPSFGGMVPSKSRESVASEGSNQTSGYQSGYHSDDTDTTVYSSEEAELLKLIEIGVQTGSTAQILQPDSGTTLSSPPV
Met (phospho-Met, HGF-stimulated PC-3 prostate cancer cells), sequence (P08581 25-1390): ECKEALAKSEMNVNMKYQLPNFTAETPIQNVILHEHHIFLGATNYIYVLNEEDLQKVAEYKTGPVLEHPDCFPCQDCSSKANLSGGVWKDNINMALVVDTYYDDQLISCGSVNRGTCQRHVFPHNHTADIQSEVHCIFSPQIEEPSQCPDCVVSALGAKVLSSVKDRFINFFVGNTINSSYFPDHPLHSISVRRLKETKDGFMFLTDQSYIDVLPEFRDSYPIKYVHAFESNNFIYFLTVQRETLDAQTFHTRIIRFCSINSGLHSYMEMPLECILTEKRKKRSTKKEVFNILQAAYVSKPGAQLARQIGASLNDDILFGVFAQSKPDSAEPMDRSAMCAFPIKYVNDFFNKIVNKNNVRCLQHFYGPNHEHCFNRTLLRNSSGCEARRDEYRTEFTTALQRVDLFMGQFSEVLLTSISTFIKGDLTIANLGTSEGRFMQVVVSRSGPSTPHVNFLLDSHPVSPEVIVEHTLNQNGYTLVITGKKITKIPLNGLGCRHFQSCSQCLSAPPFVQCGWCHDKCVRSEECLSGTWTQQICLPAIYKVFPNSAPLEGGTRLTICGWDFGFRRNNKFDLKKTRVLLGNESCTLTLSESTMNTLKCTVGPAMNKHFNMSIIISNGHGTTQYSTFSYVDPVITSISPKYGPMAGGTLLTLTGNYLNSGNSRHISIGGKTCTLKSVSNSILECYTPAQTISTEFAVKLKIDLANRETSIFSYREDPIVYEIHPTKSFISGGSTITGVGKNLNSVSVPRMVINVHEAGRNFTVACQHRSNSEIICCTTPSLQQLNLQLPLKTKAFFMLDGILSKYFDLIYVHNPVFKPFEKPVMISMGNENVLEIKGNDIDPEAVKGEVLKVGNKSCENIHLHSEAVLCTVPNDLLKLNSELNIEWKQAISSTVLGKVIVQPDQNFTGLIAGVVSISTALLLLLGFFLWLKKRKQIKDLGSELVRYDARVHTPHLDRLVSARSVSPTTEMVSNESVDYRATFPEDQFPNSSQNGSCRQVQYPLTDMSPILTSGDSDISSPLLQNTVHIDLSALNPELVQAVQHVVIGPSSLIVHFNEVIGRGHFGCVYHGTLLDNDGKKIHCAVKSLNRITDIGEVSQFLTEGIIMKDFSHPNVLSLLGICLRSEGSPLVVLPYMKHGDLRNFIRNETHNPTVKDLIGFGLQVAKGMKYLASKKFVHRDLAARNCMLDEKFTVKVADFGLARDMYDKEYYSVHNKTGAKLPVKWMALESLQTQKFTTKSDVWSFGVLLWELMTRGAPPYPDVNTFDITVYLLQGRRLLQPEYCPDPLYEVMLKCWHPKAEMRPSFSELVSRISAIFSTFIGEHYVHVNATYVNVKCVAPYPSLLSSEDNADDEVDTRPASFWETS

`COc1cc2nccc(Oc3ccc(NC(=O)C4=C5CCCN5CC(c5ccc(F)cc5)C4=O)cc3F)c2nc1OC` (racemic) [Compound 373, N-[4-[(6,7-dimethoxy-1,5-naphthyridin-4-yl)oxy]-3-fluorophenyl]-6-(4-fluorophenyl)-7-oxo-2,3,5,6-tetrahydro-1H-indolizine-8-carboxamide]: the IC50 in assay [1] is below 100 nM; in assay [2], above 300 nM; in assay [3] it was below 100 nM.

For the compound `COc1cc2nccc(Oc3ccc(NC(=O)C4=C5CCCN5CC(c5ccc(F)cc5)C4=O)cc3F)c2nc1OC` (single isomer, unassigned; enantiomer 1) [Compound 374, N-[4-[(6,7-dimethoxy-1,5-naphthyridin-4-yl)oxy]-3-fluorophenyl]-6-(4-fluorophenyl)-7-oxo-2,3,5,6-tetrahydro-1H-indolizine-8-carboxamide, enantiomer 1], the half-inhibitory concentration (IC50) in assay [1] is below 100 nM; in assay [2], above 300 nM; in assay [3], below 100 nM.

In the case of `COc1cc2nccc(Oc3ccc(NC(=O)c4cn(C)cc(-c5ccc(Cl)cc5)c4=O)cc3F)c2nc1OC` [Compound 38, 5-(4-Chlorophenyl)-N-[4-[(6,7-dimethoxy-1,5-naphthyridin-4-yl)oxy]-3-fluorophenyl]-1-methyl-4-oxopyridine-3-carboxamide hydrochloride], the IC50 was 100 to 300 nM in assay [1], below 100 nM in assay [2] and below 100 nM in assay [3].

For `COc1cc2nccc(Oc3ccc(NC(=O)c4cn(C)cc(-c5ccccc5)c4=O)cc3)c2nc1OC` [Compound 39, N-[4-[(6,7-Dimethoxy-1,5-naphthyridin-4-yl)oxy]phenyl]-1-methyl-4-oxo-5-phenylpyridine-3-carboxamide hydrochloride], the concentration for half-maximal inhibition (IC50) in assay [1], in assay [2] and in assay [3] was below 100 nM in each case.

As for `COc1cnc2c(Oc3ccc(NC(=O)c4cn(C)cc(-c5ccccc5)c4=O)cc3F)ccnc2c1` [Compound 40, N-[3-Fluoro-4-[(7-methoxy-1,5-naphthyridin-4-yl)oxy]phenyl]-1-methyl-4-oxo-5-phenylpyridine-3-carboxamide hydrochloride], the IC50 in assay [1], in assay [2] and in assay [3] was below 100 nM throughout.

Take `COc1cnc2c(Oc3ccc(NC(=O)c4ncc(C)n(-c5ccc(F)cc5)c4=O)cc3)ccnc2c1` [Compound 263, 4-(4-Fluorophenyl)-N-[4-[(7-methoxy-1,5-naphthyridin-4-yl)oxy]phenyl]-5-methyl-3-oxopyrazine-2-carboxamide]: the half-inhibitory concentration (IC50) in assay [1] is below 100 nM; in assay [2] it was above 300 nM; in assay [3] it was below 100 nM.

On to `COc1ccc2nccc(Oc3ccc(NC(=O)c4ncc(C)n(-c5ccc(F)cc5)c4=O)cc3F)c2n1` [Compound 264, N-[3-Fluoro-4-[(6-methoxy-1,5-naphthyridin-4-yl)oxy]phenyl]-4-(4-fluorophenyl)-5-methyl-3-oxopyrazine-2-carboxamide], for which the values for the IC50 in assay [1], in assay [2] and in assay [3] were below 100 nM, above 300 nM and below 100 nM, respectively.

For the compound `COc1cnc2c(Oc3ccc(NC(=O)c4cnc(C)n(-c5ccc(F)cc5)c4=O)cc3F)ccnc2c1` [Compound 265, N-[3-Fluoro-4-[(7-methoxy-1,5-naphthyridin-4-yl)oxy]phenyl]-1-(4-fluorophenyl)-2-methyl-6-oxopyrimidine-5-carboxamide], the half-maximal inhibitory concentration (IC50) is below 100 nM in assay [1], 100 to 300 nM in assay [2] and below 100 nM in assay [3].

For the compound `COc1cnc2c(Oc3ccc(NC(=O)c4cnc(C)n(-c5ccc(F)cc5)c4=O)cc3)ccnc2c1` [Compound 266, 1-(4-Fluorophenyl)-N-[4-[(7-methoxy-1,5-naphthyridin-4-yl)oxy]phenyl]-2-methyl-6-oxopyrimidine-5-carboxamide], the IC50 in assay [1] was below 100 nM; in assay [2] it was above 300 nM; in assay [3], below 100 nM.

For the compound `COc1cc2nccc(Oc3ccc(NC(=O)c4cn(C)cc(-c5c(C)cc(F)cc5C)c4=O)cc3F)c2nc1OC` [Compound 268, N-[4-[(6,7-Dimethoxy-1,5-naphthyridin-4-yl)oxy]-3-fluorophenyl]-5-(4-fluoro-2,6-dimethylphenyl)-1-methyl-4-oxopyridine-3-carboxamide], the results for the 50% inhibitory concentration (IC50) in assay [1], in assay [2] and in assay [3] were below 100 nM, above 300 nM and below 100 nM, respectively.

In the case of `COCc1c(-c2ccc(F)cc2)c(=O)c(C(=O)Nc2ccc(Oc3ccnc4cc(OC)c(OC)nc34)c(F)c2)cn1C` [Compound 269, N-[4-[(6,7-Dimethoxy-1,5-naphthyridin-4-yl)oxy]-3-fluorophenyl]-5-(4-fluorophenyl)-6-(methoxymethyl)-1-methyl-4-oxopyridine-3-carboxamide], the IC50 in assay [1] was below 100 nM; in assay [2] it was above 300 nM; in assay [3], below 100 nM.

Take `COCc1c(-c2ccc(F)cc2)c(=O)c(C(=O)Nc2ccc(Oc3ccnc4cc(OC)cnc34)c(F)c2)cn1C` [Compound 270, N-[3-Fluoro-4-[(7-methoxy-1,5-naphthyridin-4-yl)oxy]phenyl]-5-(4-fluorophenyl)-6-(methoxymethyl)-1-methyl-4-oxopyridine-3-carboxamide]: the figures for the IC50 in assay [1], in assay [2] and in assay [3] were 100 to 300 nM, above 300 nM and below 100 nM, respectively.

Turning to `CCn1cc(C(=O)Nc2ccc(Oc3ccnc4cc(OC)c(OC)nc34)c(F)c2)c(=O)c(-c2ccc(F)cc2)c1CO` [Compound 271, N-[4-[(6,7-Dimethoxy-1,5-naphthyridin-4-yl)oxy]-3-fluorophenyl]-1-ethyl-5-(4-fluorophenyl)-6-(hydroxymethyl)-4-oxopyridine-3-carboxamide], the results for the 50% inhibitory concentration (IC50) in assay [1], in assay [2] and in assay [3] were below 100 nM, 100 to 300 nM and below 100 nM, respectively.

For `CCn1cc(C(=O)Nc2ccc(Oc3ccnc4cc(OC)c(OC)nc34)cc2)c(=O)c(-c2ccc(F)cc2)c1CO` [Compound 272, N-[4-[(6,7-Dimethoxy-1,5-naphthyridin-4-yl)oxy]phenyl]-1-ethyl-5-(4-fluorophenyl)-6-(hydroxymethyl)-4-oxopyridine-3-carboxamide], the IC50 in assay [1] was below 100 nM; in assay [2], above 300 nM; in assay [3] it was below 100 nM.

Turning to `CCn1cc(C(=O)Nc2ccc(Oc3ccnc4cc(OC)cnc34)c(F)c2)c(=O)c(-c2ccc(F)cc2)c1CO` [Compound 273, 1-Ethyl-N-[3-fluoro-4-[(7-methoxy-1,5-naphthyridin-4-yl)oxy]phenyl]-5-(4-fluorophenyl)-6-(hydroxymethyl)-4-oxopyridine-3-carboxamide], the IC50 in assay [1] was below 100 nM; in assay [2], above 300 nM; in assay [3], below 100 nM.

Take `CCn1cc(C(=O)Nc2ccc(Oc3ccnc4cc(OC)cnc34)cc2)c(=O)c(-c2ccc(F)cc2)c1CO` [Compound 274, 1-Ethyl-5-(4-fluorophenyl)-6-(hydroxymethyl)-N-[4-[(7-methoxy-1,5-naphthyridin-4-yl)oxy]phenyl]-4-oxopyridine-3-carboxamide]: the IC50 in assay [1] was below 100 nM; in assay [2] it was above 300 nM; in assay [3], below 100 nM.

As for `Cc1ccc(C(=O)Nc2ccc(Oc3ccnc4cc(OCc5ccccc5)cnc34)c(F)c2)c(=O)n1-c1ccc(F)cc1` [Compound 275, 1-(4-Fluorophenyl)-N-[3-fluoro-4-[(7-phenylmethoxy-1,5-naphthyridin-4-yl)oxy]phenyl]-6-methyl-2-oxopyridine-3-carboxamide], the half-inhibitory concentration (IC50) in assay [1], in assay [2] and in assay [3] was below 100 nM each time.

As to `COc1ccc2nccc(Oc3ccc(NC(=O)c4ccc(C)n(-c5ccc(F)cc5C)c4=O)cc3)c2n1` [Compound 276, 1-(4-Fluoro-2-methylphenyl)-N-[4-[(6-methoxy-1,5-naphthyridin-4-yl)oxy]phenyl]-6-methyl-2-oxopyridine-3-carboxamide], the half-inhibitory concentration (IC50) in assay [1] is 100 to 300 nM; in assay [2] it was below 100 nM; in assay [3] it was below 100 nM.

On to `Cc1nc(C)c(-c2ccc(F)cc2)c(O)c1C(=O)Nc1ccc(Oc2ccnc3cc(OCc4ccccc4)cnc23)c(F)c1` [Compound 277, 5-(4-Fluorophenyl)-N-[3-fluoro-4-[(7-phenylmethoxy-1,5-naphthyridin-4-yl)oxy]phenyl]-4-hydroxy-2,6-dimethylpyridine-3-carboxamide], for which the IC50 in assay [1], in assay [2] and in assay [3] was below 100 nM each time.

For `Cc1nc(C)n(-c2ccc(F)cc2)c(=O)c1C(=O)Nc1ccc(Oc2ccnc3cc(OCc4ccccc4)cnc23)c(F)c1` [Compound 278, 1-(4-Fluorophenyl)-N-[3-fluoro-4-[(7-phenylmethoxy-1,5-naphthyridin-4-yl)oxy]phenyl]-2,4-dimethyl-6-oxopyrimidine-5-carboxamide], the IC50 in assay [1], in assay [2] and in assay [3] was below 100 nM each time.

For the compound `COc1cc2nccc(Oc3ccc(NC(=O)c4c(C)cc(C)n(-c5ccc(F)cc5)c4=O)cc3F)c2nc1OC` [Compound 279, N-[4-[(6,7-Dimethoxy-1,5-naphthyridin-4-yl)oxy]-3-fluorophenyl]-1-(4-fluorophenyl)-4,6-dimethyl-2-oxopyridine-3-carboxamide], the IC50 in assay [1], in assay [2] and in assay [3] was below 100 nM throughout.
